Paper PMC11039317, “Acidity of persulfides and its modulation by the protein environments in sulfide quinone oxidoreductase and thiosulfate sulfurtransferase” (The Journal of Biological Chemistry, 2024)
Where two headings read alike, the source gives them in different places. Marks after values point to notes of the source that are not given here.

Key:
[1] = cited from earlier work; for kind with mBrB, Analog thiol: pH-independent rate constant of analog thiol
[2] = cited from earlier work
[3] = pKa and nucleophilicity of LMW persulfides by pH-dependence of reaction rates with mBrB (stopped-flow fluorescence); details: for pKa, Persulfide / kind with mBrB, Persulfide: I = 0.15, 25 °C, this work; for kind with mBrB, Persulfide: pH-independent rate constant; for ΔpKa: analog thiol pKa minus persulfide pKa
Cys248 = Cys248 (UniProt position 248, PLIATCRKGVT); details: cited from earlier work
Human SQOR [4] = target: T1, Human SQOR (Homo sapiens, UniProt Q9Y6N5); details: cited from earlier work
T1 construct: made in house

Human SQOR [5] = target: T1, Human SQOR; format: biochemical; details: neutral pH
Experimental: The acidity of the persulfidated SQOR was evaluated by the pH-dependence of the steady-state rates. For enzymes that catalyze reactions with one substrate, the kinetic parameter kcat/Km (specificity constant) is an apparent second-order rate constant that reports on the properties of the free enzyme and the free substrate ([32]). kcat/Km can be calculated from the kinetic parameters kcat and Km obtained from typical Michaelis–Menten analysis (Equation 1). […]
SQOR uses three substrates: H2S, a sulfur acceptor (Acc^−), and CoQ (Fig. 1A). At saturating concentrations of H2S and CoQ, the kcat/Km^Acc- represents the apparent rate constant for the reaction between the sulfur acceptor and the Cys379SSH of the bis-persulfidated SQOR, and its pH-dependency reports on the pKa of both free species. Although the pH dependence of human SQOR activity has been reported ([25]), the pH dependence of kcat/Km is unavailable. The steady-state rate of SQOR was determined by monitoring the reduction of coenzyme Q1 (CoQ1) at 278 nm at varying pH at 25 °C. […]. Therefore, in the experiments with cyanide, the reactions were started with cyanide instead of SQOR so that the contribution of SQOR with H2S alone could be subtracted.
In experiments with sulfite, steady-state time courses with varying concentrations of sulfite (0.01–8 mM) were recorded, and linear functions were fitted to the first 15 to 40 s following SQOR addition (Fig. 3A). The slope before SQOR addition was subtracted to correct for the background nonenzymatic reduction of CoQ1, which was minimal. From the hyperbolic fit of the activity versus sulfite concentration plot (Fig. 3B), the kinetic parameters kcat^sulfite and Km^sulfite were obtained, and the kcat/Km^sulfite for each pH were calculated. As expected, when the kcat/Km^sulfite were plotted against pH, a bell-shaped profile was obtained (Fig. 3C), consistent with a reaction between a deprotonated species and a protonated one. An equation with two pKa was fitted to the data (Equation 3), assuming that deprotonated sulfite and protonated SQOR persulfide were the reacting species. […]. […]
The steady-state rates were obtained from linear fits to the data during the first 4 to 20 s following cyanide addition, and the slopes before cyanide addition were subtracted. The kcat/Km^cyanide at each pH was calculated according to Equation 2 using the enzyme (50 nM) and cyanide (90 μM) initial concentrations. […]
Human SQOR was expressed and purified as reported previously ([24], [25]). SQOR concentration was determined from the FAD absorbance at 450 nm, using ε = 11,500 M^−1 cm^−1 ([25]). […]
The activity of SQOR was measured at different pHs in a temperature-controlled spectrophotometer (Shimadzu UV-2600 or UV-1900i). […]

TST thiol = TST thiol (Homo sapiens, UniProt Q16762)
Experimental: The pH-dependency of the reaction rates of TST persulfide with sulfur acceptors and of TST thiol with thiosulfate were studied by following changes in the intrinsic fluorescence (λex = 295 nm, US 360 nm bandpass filter) in the stopped-flow spectrofluorimeter.
To prepare TST thiol, ∼ 100 μM thiosulfate was added to TST stocks ( ∼ 20 μM) at room temperature. After 15 min, ∼ 200 μM cyanide was added and left to react for 10 min. The remaining LMW compounds were removed with a PD MidiTrap G-25 column equilibrated with 10 mM Tris buffer, pH 8.5. The TST thiol was diluted in ultrapure water (1.8–2.0 μM) in one of the stopped-flow syringes and reacted with thiosulfate (400 μM) prepared in the other syringe in either acetic/MES/Tris buffer 2× (pH 3.68–8.75) or in ACES/Tris/ethanolamine buffer 2× (pH 6.68–10.34), at 25 °C. The final concentrations were halved as a result of the symmetrical stopped-flow mixing. The decrease in the intrinsic fluorescence caused by persulfide formation was recorded during 0.8 to 200 s depending on the time course, and the final pH was measured.

bovine TST = details: cited from earlier work
[6] = forms as drawn in Table 1 (ammonium form for CysOMeSSH)

T1 sequence (Q9Y6N5 whole entry): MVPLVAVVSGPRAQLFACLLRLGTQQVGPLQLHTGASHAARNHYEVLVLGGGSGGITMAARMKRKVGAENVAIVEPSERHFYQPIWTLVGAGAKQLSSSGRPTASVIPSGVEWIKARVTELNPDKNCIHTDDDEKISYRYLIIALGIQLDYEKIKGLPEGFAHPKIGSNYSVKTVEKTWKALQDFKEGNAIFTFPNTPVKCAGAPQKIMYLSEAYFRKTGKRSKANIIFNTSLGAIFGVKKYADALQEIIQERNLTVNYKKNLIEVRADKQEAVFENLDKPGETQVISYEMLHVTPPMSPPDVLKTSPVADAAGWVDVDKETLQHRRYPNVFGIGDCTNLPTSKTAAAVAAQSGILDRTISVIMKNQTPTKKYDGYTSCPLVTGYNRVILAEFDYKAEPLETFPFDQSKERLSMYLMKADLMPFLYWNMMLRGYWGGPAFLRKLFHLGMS
Chain of TST thiol (Q16762 whole entry): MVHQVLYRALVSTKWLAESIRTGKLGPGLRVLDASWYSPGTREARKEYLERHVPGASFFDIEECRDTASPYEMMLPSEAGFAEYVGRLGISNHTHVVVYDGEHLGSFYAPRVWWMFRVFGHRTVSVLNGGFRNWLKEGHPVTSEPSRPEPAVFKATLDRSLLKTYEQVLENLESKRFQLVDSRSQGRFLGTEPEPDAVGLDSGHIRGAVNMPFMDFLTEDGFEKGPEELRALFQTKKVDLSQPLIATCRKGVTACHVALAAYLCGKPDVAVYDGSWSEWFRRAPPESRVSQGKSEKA

OCCS [β-Mercaptoethanol]
kind with mBrB, Analog thiol [1]: 519 ^d M^−1 s^−1 | pKa, Analog thiol ([2]; analog thiol): 9.6 ^d

NCCSS [CystSS^−, cysteamine persulfide]
pKa, Persulfide [3, 6]: 4.87 ± 0.09 ^a | kind with mBrB, Persulfide [3]: 3.9 ± 0.2 ^a × 10^3 M^−1 s^−1

Thiosulfate sulfurtransferase (rhodanese), bovine liver (Bos taurus)
pKa (Cys248; free enzyme thiol ('the thiol alone')): 7.8 | pKa (Cys248; thiol in complex with substrate analogs): 6.75 to 7.05 | pKa (Cys248; thiol in complex with thiosulfate): 6.5

NC(CCSS)C(=O)O (stereo not drawn) [HcySS^−, homocysteine persulfide]
kind with mBrB, Persulfide [3]: 5.4 ± 0.1 ^a × 10^3 M^−1 s^−1

N[C@@H](CSS)C(=O)O [CysSS^−, cysteine persulfide]
pKa, Persulfide [3, 6]: 5.2 ± 0.1 ^a | ΔpKa [3]: 3.1 | kind with mBrB, Persulfide [3]: 3.2 ± 0.1 ^a × 10^3 M^−1 s^−1 | pH-independent second-order rate constant, kind, with mBrB ([3]; persulfide, 25 °C): (3.2 ± 0.1) × 10^3 M^−1 s^−1

N[C@@H](CS)C(=O)O [Cysteine]
kind with mBrB, Analog thiol [1]: 105 ^d M^−1 s^−1 | pKa, Analog thiol ([2]; analog thiol): 8.29 ^d

OCCSS [β-MESS^−, β-mercaptoethanol persulfide]
pKa, Persulfide [3, 6]: 5.8 ± 0.1 ^a | ΔpKa [3]: 3.8 | kind with mBrB, Persulfide [3]: 7.5 ± 0.4 ^a × 10^3 M^−1 s^−1

CC(C)c1ccccc1 [Cumene]
pKa, Analog thiol ([2]; analog thiol of the persulfide, predicted value based on similar thiols): >10 ^h | pKa, Persulfide [2]: 7.0 ^g | ΔpKa [3]: >3

NC(CCS)C(=O)O (stereo not drawn) [Homocysteine]
pKa, Analog thiol ([2]; analog thiol): 9.1 ^d

S [Persulfide H2S, hydrogen sulfide]
Km (Human SQOR [4]; pH 7.4, H2S as sulfur acceptor, read-out: Km^H2S (Acceptor)): 350 µM | Km (Human SQOR [4]; pH 7.5, first step of catalysis, read-out: Km^H2S (Donor)): 13 µM

COC1=C(OC)C(=O)C(CC=C(C)C)=C(C)C1=O [CoQ1, coenzyme Q1]
Km (Human SQOR [4]; pH 7.5, read-out: Km^CoQ1): 19 µM

Cl [chloride]
increase of apparent Km^sulfite (Human SQOR [5]; in the presence of 120 mM chloride versus absence): ~20 fold | Ki (Human SQOR [5]; sulfite as sulfur acceptor, read-out: Ki (estimated), reversible competitive inhibition versus sulfite): ~7.4 mM

N[C@@H](CCC(=O)N[C@@H](CS)C(=O)NCC(=O)O)C(=O)O [Glutathione, glutathione]
kind with mBrB, Analog thiol [1]: 208 ^d M^−1 s^−1 | Km (Human SQOR [4]; pH 7.4, read-out: Km^GSH): 8000 µM | pKa, Analog thiol ([2]; analog thiol): 8.94 ^d | pKa of the glycyl carboxylic acid ([2]; neutral variant of GSH): 3.36 | pKa of the glycyl carboxylic acid ([2]; positive variant of GSH): 3.12

COC(=O)[C@@H](N)CS [Cysteine methyl ester]
pKa, Analog thiol ([2]; analog thiol, amino (NH2) form): 8.88 ^b | pKa, Analog thiol ([2]; analog thiol, ammonium form): 7.44 ^b | pKa of the ammonium group ([2]; listed as CysOMeSH): 6.88 | pKa of the ammonium group ([2]; listed as CysOMeS^−): 8.32

COC(=O)[C@@H](N)CSS [CysOMeSS^−, cysteine methyl ester persulfide]
pKa, Persulfide [3, 6]: 4.6 ± 0.1 ^a | pKa, Persulfide ([3]; second pKa of two-pKa fit, amino (NH2) form of CysOMeSSH): 6.3 ± 0.6 ^a | ΔpKa [3]: 2.8 | ΔpKa ([3]; amino (NH2) form of CysOMeSSH): 2.6 | kind with mBrB, Persulfide [3]: 3.8 ± 0.4 ^a × 10^3 M^−1 s^−1 | kind with mBrB, Persulfide ([3]; amino (NH2) form of CysOMeSSH): 5.4 ± 0.8 ^a × 10^3 M^−1 s^−1

N[C@@H](CCC(=O)N[C@@H](CSS)C(=O)NCC(=O)O)C(=O)O [GSS^−, glutathione persulfide]
pKa, Persulfide ([1]; I = 0.15, 25 °C): 5.45 ± 0.03 ^e | kind with mBrB, Persulfide ([1]; pH-independent rate constant, I = 0.15, 25 °C): 9.0 ± 0.2 ^e × 10^3 M^−1 s^−1 | ΔpKa [3]: 3.49

B1: TST thiol (protein, UniProt Q16762 2-297, looked up)
Thiosulfate sulfurtransferase: VHQVLYRALVSTKWLAESIRTGKLGPGLRVLDASWYSPGTREARKEYLERHVPGASFFDIEECRDTASPYEMMLPSEAGFAEYVGRLGISNHTHVVVYDGEHLGSFYAPRVWWMFRVFGHRTVSVLNGGFRNWLKEGHPVTSEPSRPEPAVFKATLDRSLLKTYEQVLENLESKRFQLVDSRSQGRFLGTEPEPDAVGLDSGHIRGAVNMPFMDFLTEDGFEKGPEELRALFQTKKVDLSQPLIATCRKGVTACHVALAAYLCGKPDVAVYDGSWSEWFRRAPPESRVSQGKSEKA
modifications: active-site cysteine thiol
pH-independent rate constant, Cyanide (TST thiol): No reaction | pH-independent rate constant, Sulfite (TST thiol): No reaction | second-order rate constant with thiosulfate (TST thiol): ~30000 M⁻¹ s⁻¹ | pKa of the decrease in kobs at alkaline pH (TST thiol; pH 6.68): ~10

B2: bovine TST: bovine thiosulfate sulfurtransferase (rhodanese), literature values (protein, UniProt P00586 2-297, looked up)
Thiosulfate sulfurtransferase: VHQVLYRALVSTKWLAESVRAGKVGPGLRVLDASWYSPGTREARKEYLERHVPGASFFDIEECRDKASPYEVMLPSEAGFADYVGSLGISNDTHVVVYDGDDLGSFYAPRVWWMFRVFGHRTVSVLNGGFRNWLKEGHPVTSEPSRPEPAIFKATLNRSLLKTYEQVLENLESKRFQLVDSRAQGRYLGTQPEPDAVGLDSGHIRGSVNMPFMNFLTEDGFEKSPEELRAMFEAKKVDLTKPLIATCRKGVTACHIALAAYLCGKPDVAIYDGSWFEWFHRAPPETWVSQGKGGKA
pKa of the thiol alone (bovine TST; bovine TST): 7.8 | pKa of the thiol in complex with substrate analogs (bovine TST): 6.75 to 7.05 | pKa of the thiol in complex with thiosulfate (bovine TST): 6.5
